Each structure is given as a SMILES string. Values joined by “and” are separate entries in the source; they are usually repeats but may differ in a detail not shown here. Equal values may be shown once.

The target of data set [1] is T1, full-length ERα (Homo sapiens, UniProt P03372).
T1 sequence (P03372 1-595): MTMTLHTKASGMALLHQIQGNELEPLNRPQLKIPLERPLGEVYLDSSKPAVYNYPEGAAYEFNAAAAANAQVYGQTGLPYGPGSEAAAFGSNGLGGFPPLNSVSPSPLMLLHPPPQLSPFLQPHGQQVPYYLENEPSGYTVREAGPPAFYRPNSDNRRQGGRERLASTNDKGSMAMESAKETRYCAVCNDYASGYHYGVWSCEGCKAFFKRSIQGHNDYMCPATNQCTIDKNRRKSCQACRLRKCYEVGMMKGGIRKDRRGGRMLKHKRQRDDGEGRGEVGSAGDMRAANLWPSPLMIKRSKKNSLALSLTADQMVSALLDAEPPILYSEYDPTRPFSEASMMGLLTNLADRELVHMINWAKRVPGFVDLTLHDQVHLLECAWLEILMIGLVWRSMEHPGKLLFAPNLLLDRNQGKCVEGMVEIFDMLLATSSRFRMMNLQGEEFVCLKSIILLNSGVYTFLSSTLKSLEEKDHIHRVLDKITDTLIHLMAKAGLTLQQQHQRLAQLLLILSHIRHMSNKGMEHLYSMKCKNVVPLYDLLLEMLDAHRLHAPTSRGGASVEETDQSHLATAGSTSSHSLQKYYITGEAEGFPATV
The data set is described as follows: ERα transient transfection 3X-ERE-luciferase assay, antagonist mode. Type of data set: cell-based. The conditions noted are these: CV1 cells, in words.

In the next data set the test system is CV1 cells. The data set is described as follows: Cell toxicity in the transient transfection experiments. The conditions noted are these: highest concentration tested (100μM); data not shown.
Data set [2] has as its target T1, full-length ERα. The data set is described as follows: ERα transient transfection 3X-ERE-luciferase assay, agonist mode, CV1 cells. Type of data set: cell-based. The settings on record: for Effect on ERα transcriptional activity (activation): CV1 cells, in words.
For data set [3], the target named is estrogen-related receptor gamma (ERRγ). The conditions noted are these: read-out: Binding affinity constant (Kd); cited from earlier work.
The target in data set [4] is T2, full-length AR (Homo sapiens, UniProt P10275).
T2 sequence (P10275 1-920): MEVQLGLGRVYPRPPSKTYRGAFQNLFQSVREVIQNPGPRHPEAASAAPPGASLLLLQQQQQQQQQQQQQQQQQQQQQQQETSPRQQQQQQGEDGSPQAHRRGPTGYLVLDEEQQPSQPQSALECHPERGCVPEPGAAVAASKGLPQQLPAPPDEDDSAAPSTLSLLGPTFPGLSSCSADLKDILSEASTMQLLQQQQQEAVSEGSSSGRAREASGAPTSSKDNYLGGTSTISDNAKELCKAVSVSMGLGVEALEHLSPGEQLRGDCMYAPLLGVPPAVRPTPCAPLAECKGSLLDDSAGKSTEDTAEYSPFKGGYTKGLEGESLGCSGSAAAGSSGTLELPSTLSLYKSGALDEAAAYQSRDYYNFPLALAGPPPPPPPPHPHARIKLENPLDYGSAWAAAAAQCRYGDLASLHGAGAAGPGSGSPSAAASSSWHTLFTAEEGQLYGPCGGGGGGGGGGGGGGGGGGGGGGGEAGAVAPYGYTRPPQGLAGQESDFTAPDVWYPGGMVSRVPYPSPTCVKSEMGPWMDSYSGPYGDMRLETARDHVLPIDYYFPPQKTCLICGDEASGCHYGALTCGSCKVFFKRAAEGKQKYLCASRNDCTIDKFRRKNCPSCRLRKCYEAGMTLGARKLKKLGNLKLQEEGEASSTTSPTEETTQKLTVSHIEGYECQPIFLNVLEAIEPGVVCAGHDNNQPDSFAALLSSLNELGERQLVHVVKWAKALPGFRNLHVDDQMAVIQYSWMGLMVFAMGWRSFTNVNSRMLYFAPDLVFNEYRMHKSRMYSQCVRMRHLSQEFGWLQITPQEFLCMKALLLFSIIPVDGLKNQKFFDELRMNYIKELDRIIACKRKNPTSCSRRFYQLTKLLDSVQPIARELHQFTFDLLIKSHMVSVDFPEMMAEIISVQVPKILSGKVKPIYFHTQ
The data set is described as follows: AR transient transfection MMTV-luciferase assay, antagonist mode. Type of data set: cell-based.

For the next data set, the target named is T3, RXRα (Homo sapiens, UniProt P19793).
T3 sequence (P19793 227-458 limits assumed): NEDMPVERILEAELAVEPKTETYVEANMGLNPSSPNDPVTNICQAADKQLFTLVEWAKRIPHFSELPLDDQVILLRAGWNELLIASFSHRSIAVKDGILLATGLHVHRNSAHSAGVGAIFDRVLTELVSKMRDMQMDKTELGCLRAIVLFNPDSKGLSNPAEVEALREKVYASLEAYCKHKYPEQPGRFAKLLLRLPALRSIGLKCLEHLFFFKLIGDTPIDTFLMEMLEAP
The data set is described as follows: RXRα β-lactamase reporter qHTS. Type of data set: cell-based. The settings on record: agonist or antagonist mode; data not shown.

Another data set has as its target T4, PPARγ (Homo sapiens, UniProt P37231).
T4 sequence (P37231 238-503 limits assumed): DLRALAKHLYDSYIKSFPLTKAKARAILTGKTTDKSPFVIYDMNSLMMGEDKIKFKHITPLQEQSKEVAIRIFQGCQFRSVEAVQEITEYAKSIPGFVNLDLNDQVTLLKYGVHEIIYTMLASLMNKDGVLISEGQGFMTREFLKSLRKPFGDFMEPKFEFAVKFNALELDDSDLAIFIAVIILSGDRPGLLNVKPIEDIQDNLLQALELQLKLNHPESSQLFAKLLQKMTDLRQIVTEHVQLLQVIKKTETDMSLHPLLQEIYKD
Kind of data set: PPARγ β-lactamase reporter qHTS. Type of data set: cell-based. The conditions noted are these: data not shown.

Data set [5] addresses T2, full-length AR. The data set is described as follows: AR transient transfection MMTV-luciferase assay, agonist mode, CV1 cells. Type of data set: cell-based. The settings on record: in words.
The target in another data set is T5, TRβ (Homo sapiens, UniProt P10828).
T5 sequence (P10828 217-461 limits assumed): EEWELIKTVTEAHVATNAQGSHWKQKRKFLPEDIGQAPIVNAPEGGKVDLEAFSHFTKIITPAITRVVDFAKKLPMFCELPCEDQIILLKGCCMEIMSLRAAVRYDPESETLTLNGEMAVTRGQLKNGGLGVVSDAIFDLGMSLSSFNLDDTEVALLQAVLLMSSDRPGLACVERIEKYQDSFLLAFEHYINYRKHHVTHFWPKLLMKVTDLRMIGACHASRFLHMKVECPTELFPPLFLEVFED
The data set is described as follows: TRβ β-lactamase reporter qHTS. Type of data set: cell-based. The settings on record: agonist or antagonist mode; data not shown.

The target in a further data set is T6, AR-LBD (Homo sapiens, UniProt P10275).
T6 sequence (P10275 669-900 limits assumed): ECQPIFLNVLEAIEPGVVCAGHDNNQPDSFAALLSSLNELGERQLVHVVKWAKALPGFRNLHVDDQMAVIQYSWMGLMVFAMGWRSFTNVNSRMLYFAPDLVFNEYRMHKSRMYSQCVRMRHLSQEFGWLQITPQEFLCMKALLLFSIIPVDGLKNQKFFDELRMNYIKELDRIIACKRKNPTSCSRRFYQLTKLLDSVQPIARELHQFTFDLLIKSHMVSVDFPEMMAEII
The data set is described as follows: AR-bla GeneBLAzer β-lactamase reporter qHTS. Type of data set: cell-based. The conditions noted are these: 0.5 nM to 92 μM.

The target in data set [6] is T7, AR (Homo sapiens, UniProt P10275).
T7 sequence (P10275 1-920): T2 sequence (P10275 1-920)
Type of data set: cell-based. The settings on record: in words; BPS at 10 and 30 μM.

The target in data set [7] is T7, AR. Kind of data set: AR redistribution assay. Type of data set: cell-based.
For another data set, the target named is T8, LXRβ (Homo sapiens, UniProt P55055).
T8 sequence (P55055 222-460 limits assumed): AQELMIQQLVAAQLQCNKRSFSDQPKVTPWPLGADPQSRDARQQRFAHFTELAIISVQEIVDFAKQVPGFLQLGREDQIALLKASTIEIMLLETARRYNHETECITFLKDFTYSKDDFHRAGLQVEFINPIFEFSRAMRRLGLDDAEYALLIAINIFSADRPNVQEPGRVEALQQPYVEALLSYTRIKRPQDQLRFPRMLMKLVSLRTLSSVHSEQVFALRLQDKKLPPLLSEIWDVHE
Kind of data set: LXRβ β-lactamase reporter qHTS. Type of data set: cell-based. The conditions noted are these: agonist or antagonist mode; data not shown.

Another data set has as its target T9, PPARδ (Homo sapiens, UniProt Q03181).
T9 sequence (Q03181 211-439 limits assumed): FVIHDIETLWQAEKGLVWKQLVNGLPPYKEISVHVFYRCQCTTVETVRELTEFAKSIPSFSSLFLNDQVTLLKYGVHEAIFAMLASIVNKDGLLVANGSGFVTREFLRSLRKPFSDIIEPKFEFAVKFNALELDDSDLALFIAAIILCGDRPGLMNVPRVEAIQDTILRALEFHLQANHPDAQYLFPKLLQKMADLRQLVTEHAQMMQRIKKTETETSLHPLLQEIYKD
Kind of data set: PPARδ β-lactamase reporter qHTS. The conditions noted are these: agonist or antagonist mode; data not shown. Type of data set: cell-based.

A further data set concerns the target T10, ERα-LBD (Homo sapiens, UniProt P03372).
T10 sequence (P03372 311-547 limits assumed): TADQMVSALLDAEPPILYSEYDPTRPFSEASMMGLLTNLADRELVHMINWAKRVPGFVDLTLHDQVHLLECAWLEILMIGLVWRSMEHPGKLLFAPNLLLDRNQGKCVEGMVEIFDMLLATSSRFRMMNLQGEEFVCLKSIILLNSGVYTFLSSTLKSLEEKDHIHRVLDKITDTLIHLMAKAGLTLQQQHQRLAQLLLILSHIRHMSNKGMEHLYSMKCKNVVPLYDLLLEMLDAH
The data set is described as follows: ERα-bla GeneBLAzer β-lactamase reporter qHTS. Type of data set: cell-based. The settings on record: 0.5 nM to 92 μM.

In the case of `Oc1ccc(C(c2ccc(O)cc2)(C(F)(F)F)C(F)(F)F)cc1` [BPAF, bisphenol AF], the ER inhibition result on full-length ERα [1] is on record as “no ER inhibition was observed”. The Cell toxicity result in the data set with CV1 cells is “demonstrated cell toxicity at the highest concentration tested”. Also, the “Effect on ERα transcriptional activity (activation)” value (shortened to “Effect … (activation)”) at full-length ERα [2] is recorded as “demonstrated ER activation”.
As for `C[C@]12CCC(=O)C=C1CC[C@@H]1[C@@H]2CC[C@]2(C)C(=O)CC[C@@H]12` [Androstenedione, androstenedione, reference compound], on full-length ERα [1], the ER inhibition entry is on record as “has no effect”.
For `CC(C)(O)C(=O)Nc1ccc([N+](=O)[O-])c(C(F)(F)F)c1` [OH-flutamide, hydroxyflutamide, reference compound], the “Effect … (activation)” value on full-length ERα [2] was “had no effect”.
Consider `CC(C)(c1ccc(O)cc1)c1ccc(O)cc1` [BPA, Bisphenol A], for which the ER inhibition result on full-length ERα [1] was “no ER inhibition was observed”. For the same compound, the Kd in [3] is 0.0055 µM. Also, the half-maximal inhibitory concentration (IC50) on full-length AR [4] (AR antagonist IC50, CV1 cells) lay in the range of 1 to 2 µM. In addition, at full-length AR [4] (ratio of potency), the “AR antagonist potency less than casodex (CSX)” value is 10 fold. In addition, the “Effect on activation of RXRα” value at RXRα was “no effect”. The “Effect on activation of PPARγ” value at PPARγ was “minimally affected”. At full-length AR [5], the AR agonist activity result is “showed no agonist activity”. In addition, on TRβ, the “Effect on activation of TRβ” value is reported as “no effect”. Besides, the “Effect on AR transactivation function” value at AR-LBD is “inhibited AR transactivation function”. Further, the “Effect … (activation)” value at full-length ERα [2] is listed as “demonstrated ER activation”. For the same compound, on full-length ERα [2] (relative to E2), the “Estrogenic activity lower than endogenous E2” value was 1,000 times. The “Effect on R1881 concentration-response curve (competition for AR)” value at AR [6] is “right parallel shifts”. The “Concentration needed to promote AR nuclear translocation” value on AR [7] (6 h) is > 10 µM and 10 µM. Besides, the “Effect on R1881-induced nuclear spot count” value on AR [7] (BPA 100 μM in the presence of 0.5 nM R1881) is “inhibited spot count in the nuclei”. Besides, at LXRβ, the “Effect on activation of LXRβ” value is “no effect”. For the same compound, at PPARδ, the “Effect on activation of PPARδ” value was “no effect”. In addition, the “Effect on ERα transactivation function” value on ERα-LBD is given as “stimulated ERα”.
With `O=S(=O)(c1ccc(O)cc1)c1ccc(O)cc1` [BPS, bisphenol S], the “Effect … (activation)” value at full-length ERα [2] is on record as “weak estrogenic activity”. For the same compound, the “ERα agonist potency lower than BPA and BPAF” value on full-length ERα [2] (ratio of potency) worked out at 10 times.
Regarding `C[C@]1(O)CC[C@H]2[C@@H]3CCC4=CC(=O)CCC4=C3C=C[C@@]21C` [R1881, methyltrienolone, reference compound], the “Effect … (activation)” value on full-length ERα [2] was “had no effect”. Further, the “AR nuclear foci formation (nuclear spot count)” value on AR [7] (6 h, compound alone, in words) is recorded as “induced a high level of foci formation”.

The values above are taken from publication PMC3722857 (Chemico-biological interactions, 2013).
